Patent publication US9724408B2, “Compositions and methods for activating stimulator of interferon gene-dependent signalling” (ADURO BIOTECH, INC., priority 2013, dated 2017)

Experiments:
[1] = test system: 4T1 mammary carcinoma cells; assay: 4T1 mammary carcinoma flank tumor model, intratumoral CDN; type: in vivo, BALB/c mice
Experimental: Either CT26 colon carcinoma cells (1×10^5 cells in 100 μL PBS) or 4T1 mammary carcinoma cells (1×10^5 cells in 100 μL PBS) were implanted subcutaneously on the flanks of 6-8 week old female BALB/c mice (8 mice per group). Treatments began when tumors reached a volume of approximately 75 mm^3, which was approximately day 14 post tumor implantation. The compounds Rp, Rp dithio cyclic [A(2′,5′)pA(3′,5′)p] (ML RR-CDA) or Rp, Rp dithio cyclic [G(2′,5′)pG(3′,5′)p] (ML RR-CDG) compounds (25 μg in a total volume of 40 μL HBSS), or HBSS vehicle control, and Rp, Rp dithio cyclic [A(2′,5′)pA(3′,5′)p] (ML RR-CDA) (50 μg in a total volume of 40 μL HBSS) or HBSS vehicle control, were administered by subcutaneous injection into the center of the tumor using a 27 gauge needle. Injections were repeated every three days, for a total of three intratumoral injections.
To determine whether CDN derivative molecules induce effective and durable anti-tumor immunity in an alternate tumor model, 6-8 week old female BALB/c mice (8 mice per group) were implanted with 4T1 mammary carcinoma cells (1×10^5 cells in 100 μL PBS). […] On day 35 post tumor implantation, surviving mice and age-matched naïve control mice were implanted on the contralateral flank with either CT26 or 4T1 (both 1×10^5 cells in 100 μL PBS) tumor cells (4 mice per group), and monitored for tumor growth.

4T1 = assay: Re-challenge of surviving mice with 4T1 tumor cells on the contralateral flank; type: in vivo, BALB/c mice
Experimental: (§1) To determine whether the synthetic derivative CDN molecules elicit durable and effective anti-tumor T-cell immunity, 6-8 week old female BALB/c mice (8 mice per group) were implanted with CT26 colon carcinoma cells (1×10^5 cells in 100 μL PBS). Mice were treated with Rp, Rp dithio cyclic [A(2′,5′)pA(3′,5′)p] (ML RR-CDA) compound ([…] in a total volume of 40 μL HBSS) or HBSS vehicle control, and tumor growth was monitored as per previous example. Mice were bled on day 18 post tumor implantation and PBMCs were isolated by Ficoll gradient (Miltenyi Biotech). 5×10^4 PBMCs were stimulated overnight in an IFNγ ELISpot assay with media alone (unstimulated), or with 1 μM of the endogenous H-2 L^d-restricted tumor rejection antigen AH1 peptide in the presence of 1×10^5 naïve splenocytes as feeder cells. IFN-γ ELISpot plates were developed and quantified using a CTL plate reader and ImmunoSpot software. On day 55 post tumor implantation, surviving mice and age-matched naïve control mice were implanted on the contralateral flank with either CT26 or 4T1 (both 1×10^5 cells in 100 μL PBS) tumor cells (4 mice per group), and monitored for tumor growth. […]

CT26 = assay: Re-challenge of surviving mice with CT26 tumor cells on the contralateral flank; type: in vivo, BALB/c mice
Experimental: as §1

B16 melanoma cells = assay: Abscopal model, B16 flank tumor plus intravenous B16 lung colonization; type: in vivo, C57BL/6 mice; conditions: three injections
Experimental: To determine whether the synthetic CDN derivative molecules promote abscopal anti-tumor immunity in an alternative tumor model and mouse genetic background, 6-8 week old female C57BL/6 mice (8 mice per group) were implanted with B16 melanoma cells (5×10^4 cells in 100 μL PBS) in the right flank. One week later mice were implanted intravenously with 1×10^5 B16 melanoma cells to colonize the lung, along with a group of naïve age-matched control mice. When the subcutaneous flank tumor reached approximately 75 mm^3 on day 13, mice were treated intratumorally with Rp, Rp dithio cyclic [A(2′,5′)pA(3′,5′)p] (ML RR-CDA) (50 μg in a total volume of 40 μL HBSS) or HBSS vehicle control, for three injections as per previous protocol. On day 28 post subcutaneous tumor implantation (day 21 post i.v. implantation), mice were euthanized and lungs were harvested and fixed (10% Neutral Buffered Formalin), and the number of lung tumor nodules counted using a dissecting microscope.

[2] = test system: 4T1 mammary carcinoma cells; assay: Abscopal model, 4T1 tumors on contralateral flanks, primary tumor injected; type: in vivo, BALB/c mice; conditions: 50 μg into the primary tumor only, three injections
From the text: The STING-dependent induction of tumor-specific T cell immunity protects animals against subsequent challenge with the autologous tumor. It will be apparent to those skilled in the art that advanced cancer is metastatic, and that to be effective, therapies must inhibit outgrowth of distal masses. Treatment of one or selected lesions that inhibits tumor outgrowth of distal untreated tumor masses is known as an abscopal effect. To test whether IT injection of a selected tumor with synthetic CDN derivative molecules inhibited the tumor outgrowth of a distal untreated tumor, (A) CT26 colon carcinoma cells (1×10^5 cells in 100 μL PBS) and (B) 4T1 mammary carcinoma cells (1×10^5 cells in 100 μL PBS) were implanted subcutaneously on the contralateral flanks of 6-8 week old female BALB/c mice (8 mice per group). Treatments began when tumors reached a volume of approximately 75 mm^3, on day 13 post tumor implantation. The Rp, Rp dithio cyclic [A(2′,5′)pA(3′,5′)p] (ML RR-CDA) compound (50 μg in a total volume of 40 μL HBSS), or HBSS vehicle control, was administered by subcutaneous injection into the center of the primary (right side) tumor only using a 27 gauge needle. Injections were repeated every three days, for a total of three intratumoral injections.

[3] = re-challenge on day 35 post tumor implantation, FIG. 22B
[4] = re-challenge on day 55 post tumor implantation, FIG. 21C

Nc1ncnc2c1ncn2[C@@H]1O[C@@H]2COP(O)(=S)O[C@@H]3C(O)[C@@H](COP(O)(=S)O[C@H]2[C@H]1O)O[C@H]3n1cnc2c(N)ncnc21 (stereo partly shown) [ML RR-CDA, dithio-[RP, RP]-cyclic-[A(2′,5′)pA(3′,5′)p]]
inhibition of tumor growth of established 4T1 mammary carcinomas ([1]; 50 μg intratumoral, FIG. 22A): completely inhibited tumor growth of established 4T1 mammary carcinomas | inhibition of tumor growth of established 4T1 mammary tumors ([1]; intratumoral, every three days, three injections, 8 mice per group, FIG. 19C): completely inhibited tumor growth of all established 4T1 mammary tumors | protection against 4T1 re-challenge, survivors of 4T1 tumors (4T1; [3]): complete protection | protection against 4T1 re-challenge, survivors of CT26 tumors (4T1; [4]): not inhibiting growth of the 4T1 tumor type | protection against CT26 re-challenge, survivors of 4T1 tumors (CT26; [3]): complete protection | protection against CT26 re-challenge, survivors of CT26 tumors (CT26; [4]): complete protection against the same CT26 tumor type | growth of distal lung tumor nodules (B16 melanoma cells; 50 μg into the flank tumor, lungs on day 28, FIG. 24B, 24C): significantly inhibited the growth of distal lung tumor nodules | tumor growth of the primary flank tumor (B16 melanoma cells; 50 μg intratumoral, P<0.001, FIG. 24A): significantly inhibited tumor growth of the primary flank tumor | inhibition of the treated primary tumor, 4T1 ([2]; FIG. 23B): complete inhibition of the treated primary tumor | outgrowth of the contralateral (untreated) tumor, 4T1 ([2]; P=0.0019, FIG. 23B): significantly inhibited
